Target: ABCB1 (P-glycoprotein/MDR1) (Homo sapiens, UniProt P08183)
Assay: biochemical

Chain of ABCB1 (P-glycoprotein/MDR1) (P08183 whole entry): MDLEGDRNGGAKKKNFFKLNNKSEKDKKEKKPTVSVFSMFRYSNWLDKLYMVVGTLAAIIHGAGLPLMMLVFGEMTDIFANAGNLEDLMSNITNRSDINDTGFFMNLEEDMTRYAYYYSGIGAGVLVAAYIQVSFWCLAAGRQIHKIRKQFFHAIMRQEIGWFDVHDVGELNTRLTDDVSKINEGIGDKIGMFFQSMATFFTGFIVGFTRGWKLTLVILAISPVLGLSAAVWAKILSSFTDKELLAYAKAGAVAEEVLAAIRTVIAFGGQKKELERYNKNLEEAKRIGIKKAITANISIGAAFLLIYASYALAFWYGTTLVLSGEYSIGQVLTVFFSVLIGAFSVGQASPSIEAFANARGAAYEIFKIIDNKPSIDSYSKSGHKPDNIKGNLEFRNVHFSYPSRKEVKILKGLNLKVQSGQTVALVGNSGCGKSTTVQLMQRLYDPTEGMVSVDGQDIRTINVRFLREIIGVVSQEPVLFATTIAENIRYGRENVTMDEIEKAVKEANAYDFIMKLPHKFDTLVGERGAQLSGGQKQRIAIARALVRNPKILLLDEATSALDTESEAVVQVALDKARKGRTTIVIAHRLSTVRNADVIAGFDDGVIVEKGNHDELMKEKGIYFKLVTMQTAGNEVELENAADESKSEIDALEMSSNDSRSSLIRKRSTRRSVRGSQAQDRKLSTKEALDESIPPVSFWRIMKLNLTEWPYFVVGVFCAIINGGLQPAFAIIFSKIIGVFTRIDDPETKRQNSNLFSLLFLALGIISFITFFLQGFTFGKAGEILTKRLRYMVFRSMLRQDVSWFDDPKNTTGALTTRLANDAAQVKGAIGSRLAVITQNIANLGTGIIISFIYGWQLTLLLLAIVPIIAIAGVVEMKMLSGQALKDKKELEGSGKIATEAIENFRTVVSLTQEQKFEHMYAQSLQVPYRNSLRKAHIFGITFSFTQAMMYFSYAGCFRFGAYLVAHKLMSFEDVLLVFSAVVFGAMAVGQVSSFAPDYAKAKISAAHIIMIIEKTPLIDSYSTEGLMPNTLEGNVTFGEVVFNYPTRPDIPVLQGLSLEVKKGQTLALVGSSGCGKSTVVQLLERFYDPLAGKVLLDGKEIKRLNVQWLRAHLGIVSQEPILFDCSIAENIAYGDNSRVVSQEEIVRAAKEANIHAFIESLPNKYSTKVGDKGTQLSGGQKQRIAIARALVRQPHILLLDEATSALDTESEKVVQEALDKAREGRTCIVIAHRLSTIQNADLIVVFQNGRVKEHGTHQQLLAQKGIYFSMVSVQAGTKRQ

IC50: ~500 nM
SMILES: N#Cc1cc2c(OCC(O)CN3CCN(C(c4ccccc4)c4ccccc4)CC3)cccc2[nH]1 (racemic) [DPI-201106]

Source: PMC6109596 (Cancer letters, 2018)
